# Measured values as given in ChEMBL document CHEMBL1697781, “Assessment of the health effects of chemicals in humans: II. Construction of an adverse effects database for QSAR modeling” (Curr Drug Discov Technol, 2004).
# Test system: Hepatotoxicity
# Test: FDA HLAED, liver enzyme composite activity
# Details: human
# Wherever GGT Increase - Index Value is given: reference of the scale not given here.
# Wherever LDH Increase - Index Value is given: reference of the scale not given here.
SMILES,Composite Activity - Active,Composite Activity - Marginal,Composite Activity - Score
NCC1(CC(=O)O)CCCCC1 [GABAPENTIN],0,0,Inactive
Nc1nc(O)c2ncn(COC(CO)CO)c2n1 [GANCICLOVIR],1,0,Inactive
Nc1ccn([C@@H]2O[C@H](CO)[C@@H](O)C2(F)F)c(=O)n1 [GEMCITABINE],0,0,Inactive
Cc1ccc(C)c(OCCCC(C)(C)C(=O)O)c1 [GEMFIBROZIL],0,0,Inactive
CCC1=C(C)CN(C(=O)NCCc2ccc(S(=O)(=O)NC(=O)N[C@H]3CC[C@H](C)CC3)cc2)C1=O [GLIMEPIRIDE],0,0,Inactive
COc1ccc(Cl)cc1C(=O)NCCc1ccc(S(=O)(=O)NC(=O)NC2CCCCC2)cc1 [GLYBURIDE],0,1,Inactive
CN1C2CCCC1CC(NC(=O)c1nn(C)c3ccccc13)C2 (stereo unspecified) [GRANISETRON],0,0,Inactive

# Test system: Hepatotoxicity
# Test: FDA HLAED, alkaline phosphatase increase
# Details: human
SMILES,Alkaline Phosphatase Increase - Activity Score,Alkaline Phosphatase Increase - Index Value,Alkaline Phosphatase Increase - Number of Reports
NCC1(CC(=O)O)CCCCC1 [GABAPENTIN],Inactive,0.7,>= 4
Nc1nc(O)c2ncn(COC(CO)CO)c2n1 [GANCICLOVIR],Active,4.2,>= 4
Nc1ccn([C@@H]2O[C@H](CO)[C@@H](O)C2(F)F)c(=O)n1 [GEMCITABINE],Inactive,4.3,< 4
Cc1ccc(C)c(OCCCC(C)(C)C(=O)O)c1 [GEMFIBROZIL],Inactive,0,< 4
CCC1=C(C)CN(C(=O)NCCc2ccc(S(=O)(=O)NC(=O)N[C@H]3CC[C@H](C)CC3)cc2)C1=O [GLIMEPIRIDE],Inactive,1.2,< 4
COc1ccc(Cl)cc1C(=O)NCCc1ccc(S(=O)(=O)NC(=O)NC2CCCCC2)cc1 [GLYBURIDE],Marginally Active,3.4,>= 4
CN1C2CCCC1CC(NC(=O)c1nn(C)c3ccccc13)C2 (stereo unspecified) [GRANISETRON],Inactive,1,>= 4

# Test system: Hepatotoxicity
# Test: FDA HLAED, serum glutamic oxaloacetic transaminase (SGOT) increase
# Details: human
SMILES,SGOT Increase - Activity Score,SGOT Increase - Index Value,SGOT Increase - Number of Reports
NCC1(CC(=O)O)CCCCC1 [GABAPENTIN],Inactive,0.8,>= 4
Nc1nc(O)c2ncn(COC(CO)CO)c2n1 [GANCICLOVIR],Inactive,2.7,>= 4
Nc1ccn([C@@H]2O[C@H](CO)[C@@H](O)C2(F)F)c(=O)n1 [GEMCITABINE],Inactive,1.4,< 4
Cc1ccc(C)c(OCCCC(C)(C)C(=O)O)c1 [GEMFIBROZIL],Inactive,0,< 4
CCC1=C(C)CN(C(=O)NCCc2ccc(S(=O)(=O)NC(=O)N[C@H]3CC[C@H](C)CC3)cc2)C1=O [GLIMEPIRIDE],Inactive,1.2,< 4
COc1ccc(Cl)cc1C(=O)NCCc1ccc(S(=O)(=O)NC(=O)NC2CCCCC2)cc1 [GLYBURIDE],Inactive,1.8,>= 4
CN1C2CCCC1CC(NC(=O)c1nn(C)c3ccccc13)C2 (stereo unspecified) [GRANISETRON],Inactive,0.6,< 4

# Test system: Hepatotoxicity
# Test: FDA HLAED, serum glutamic pyruvic transaminase (SGPT) increase
# Details: human
SMILES,SGPT Increase - Activity Score,SGPT Increase - Index Value,SGPT Increase - Number of Reports
NCC1(CC(=O)O)CCCCC1 [GABAPENTIN],Inactive,0.8,>= 4
Nc1nc(O)c2ncn(COC(CO)CO)c2n1 [GANCICLOVIR],Inactive,2.3,>= 4
Nc1ccn([C@@H]2O[C@H](CO)[C@@H](O)C2(F)F)c(=O)n1 [GEMCITABINE],Inactive,1.4,< 4
Cc1ccc(C)c(OCCCC(C)(C)C(=O)O)c1 [GEMFIBROZIL],Inactive,0,< 4
CCC1=C(C)CN(C(=O)NCCc2ccc(S(=O)(=O)NC(=O)N[C@H]3CC[C@H](C)CC3)cc2)C1=O [GLIMEPIRIDE],Inactive,1.2,< 4
COc1ccc(Cl)cc1C(=O)NCCc1ccc(S(=O)(=O)NC(=O)NC2CCCCC2)cc1 [GLYBURIDE],Inactive,2.2,>= 4
CN1C2CCCC1CC(NC(=O)c1nn(C)c3ccccc13)C2 (stereo unspecified) [GRANISETRON],Inactive,0.6,< 4

# Test system: Hepatotoxicity
# Test: FDA HLAED, lactate dehydrogenase (LDH) increase
# Details: human
SMILES,LDH Increase - Activity Score,LDH Increase - Index Value,LDH Increase - Number of Reports
NCC1(CC(=O)O)CCCCC1 [GABAPENTIN],Inactive,0.4,< 4
Nc1nc(O)c2ncn(COC(CO)CO)c2n1 [GANCICLOVIR],Inactive,1.9,>= 4
Nc1ccn([C@@H]2O[C@H](CO)[C@@H](O)C2(F)F)c(=O)n1 [GEMCITABINE],Inactive,1.4,< 4
Cc1ccc(C)c(OCCCC(C)(C)C(=O)O)c1 [GEMFIBROZIL],Inactive,0,< 4
CCC1=C(C)CN(C(=O)NCCc2ccc(S(=O)(=O)NC(=O)N[C@H]3CC[C@H](C)CC3)cc2)C1=O [GLIMEPIRIDE],Inactive,0,< 4
COc1ccc(Cl)cc1C(=O)NCCc1ccc(S(=O)(=O)NC(=O)NC2CCCCC2)cc1 [GLYBURIDE],Inactive,0.8,>= 4
CN1C2CCCC1CC(NC(=O)c1nn(C)c3ccccc13)C2 (stereo unspecified) [GRANISETRON],Inactive,0.2,< 4

# Test system: Hepatotoxicity
# Test: FDA HLAED, gamma-glutamyl transferase (GGT) increase
# Details: human
SMILES,GGT Increase - Activity Score,GGT Increase - Index Value,GGT Increase - Number of Reports
NCC1(CC(=O)O)CCCCC1 [GABAPENTIN],Inactive,0.7,>= 4
Nc1nc(O)c2ncn(COC(CO)CO)c2n1 [GANCICLOVIR],Inactive,0.8,< 4
Nc1ccn([C@@H]2O[C@H](CO)[C@@H](O)C2(F)F)c(=O)n1 [GEMCITABINE],Inactive,1.4,< 4
Cc1ccc(C)c(OCCCC(C)(C)C(=O)O)c1 [GEMFIBROZIL],Inactive,0,< 4
CCC1=C(C)CN(C(=O)NCCc2ccc(S(=O)(=O)NC(=O)N[C@H]3CC[C@H](C)CC3)cc2)C1=O [GLIMEPIRIDE],Inactive,1.2,< 4
COc1ccc(Cl)cc1C(=O)NCCc1ccc(S(=O)(=O)NC(=O)NC2CCCCC2)cc1 [GLYBURIDE],Inactive,0,< 4
CN1C2CCCC1CC(NC(=O)c1nn(C)c3ccccc13)C2 (stereo unspecified) [GRANISETRON],Inactive,0.2,< 4
